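The compound was tested at five concentrations on cells cultured in 96-well plates, with a 48-hour exposure period. Definition used: TGI = concentration required for complete inhibition of growth.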

The test system of one assay is NCI-H226 lung. In words: DTP human tumour cell line panel, 48 h.
The compound `O=C(COc1ccc2c(=O)cc(-c3ccccc3)oc2c1)N1CCN(c2ccccc2)CC1` returned a TGI greater than 100 µM.
Turning to `Cn1cnc(CCc2ccccc2)n1`, the TGI was greater than 100 µM.
On the same count and under the same terms, for `COc1cc(OC)c2c(c1)C(=O)C(CC(C)O)=CC2=O` (configuration not stated) the value was 35.4 µM; for `O=Nc1c(O)cc(Nc2ccc(Br)cc2)c2ccccc12`, 10.5 µM.
Same read-out and setting: the figure for `Cc1csc(=S)n1OC(=O)NC1CCCCC1` is greater than 100 µM; for `C=CC/C=C/Cc1csc(C(C)(C)C(O)C/C=C/C(=C)CCNC(=O)OC)n1` (configuration not stated) it is greater than 100 µM.
The same measure, in the same setting: the figure for `COc1ccc(C2=Nc3ccccc3NC(=O)C2)cc1` is greater than 100 µM; for `O=c1c2nn3c(=O)n(-c4ccccc4)c(=O)c3nn2c(=O)n1-c1ccccc1` it is greater than 100 µM; for `COC(=O)C1=CC2CCCC1(O)C(C(C)=O)C2` (configuration not stated) it is greater than 100 µM.
Compound `Cc1ccc(C2=Nc3cccc4cccc(c34)N2)cc1` returned a TGI greater than 100 µM.
Regarding `COC(=O)c1ccccc1CC1Cc2ccc3c(c2C1=O)CCC3` (configuration not stated), the TGI was greater than 100 µM.
On the same count and under the same terms, for `CS(=O)(=O)N1CC(CCl)c2ccc([N+](=O)[O-])cc21` (configuration not stated) the value was greater than 100 µM; for `O=c1cc(NNc2ccccc2)[nH]c(=S)[nH]1`, greater than 100 µM.
`CC(=O)NC(CS/N=N/c1nc[nH]c1C(N)=O)C(=O)O` (configuration not stated) showed a TGI greater than 100 µM.
`CSc1ncc2c(C#N)c3sc4ccccc4n3c(=O)c2n1` yielded a TGI greater than 100 µM.

The test system of another assay is SK-MEL-2 melanoma. Nature of the assay: DTP human tumour cell line panel, 48 h.
`O=C(COc1ccc2c(=O)cc(-c3ccccc3)oc2c1)N1CCN(c2ccccc2)CC1`: the TGI amounted to 77.8 µM.
On the same count and under the same terms, for `Cn1cnc(CCc2ccccc2)n1` the value was greater than 100 µM; for `CC1=C(C(=O)O)N2C(=O)[C@@H](NC(=O)C(c3ccc(O)cc3)N3CSC(=S)N(C(C)C)C3)C2SC1` (some centres not stated), greater than 100 µM; for `COc1cc(OC)c2c(c1)C(=O)C(CC(C)O)=CC2=O` (configuration not stated), 36.2 µM.
On the same count and under the same terms, the figure for `O=Nc1c(O)cc(Nc2ccc(Br)cc2)c2ccccc12` is 3.64 µM; for `Cc1csc(=S)n1OC(=O)NC1CCCCC1` it is greater than 100 µM; for `C=CC/C=C/Cc1csc(C(C)(C)C(O)C/C=C/C(=C)CCNC(=O)OC)n1` (configuration not stated) it is greater than 100 µM.
Same read-out and setting: for `COc1ccc(C2=Nc3ccccc3NC(=O)C2)cc1` the value was greater than 100 µM; for `O=c1c2nn3c(=O)n(-c4ccccc4)c(=O)c3nn2c(=O)n1-c1ccccc1`, greater than 100 µM.
On to `COC(=O)C1=CC2CCCC1(O)C(C(C)=O)C2` (configuration not stated), for which the TGI was greater than 100 µM.
The same measure, in the same setting: the figure for `Cc1ccc(C2=Nc3cccc4cccc(c34)N2)cc1` is greater than 100 µM; for `COC(=O)c1ccccc1CC1Cc2ccc3c(c2C1=O)CCC3` (configuration not stated) it is greater than 100 µM; for `CS(=O)(=O)N1CC(CCl)c2ccc([N+](=O)[O-])cc21` (configuration not stated) it is greater than 100 µM.
`O=c1cc(NNc2ccccc2)[nH]c(=S)[nH]1` gave a TGI of 61.3 µM.
The same measure, in the same setting: for `CC(=O)NC(CS/N=N/c1nc[nH]c1C(N)=O)C(=O)O` (configuration not stated) the value was greater than 100 µM.
Same read-out and setting: the figure for `CSc1ncc2c(C#N)c3sc4ccccc4n3c(=O)c2n1` is greater than 100 µM.

The next assay relates to A549 NSCLC. Nature of the assay: DTP human tumour cell line panel, 48 h.
Compound `O=C(COc1ccc2c(=O)cc(-c3ccccc3)oc2c1)N1CCN(c2ccccc2)CC1` registered a concentration for total growth inhibition (TGI) greater than 100 µM.
`Cn1cnc(CCc2ccccc2)n1`: the total growth inhibition concentration (TGI) was greater than 100 µM.
Still for that read-out and setting: for `CC1=C(C(=O)O)N2C(=O)[C@@H](NC(=O)C(c3ccc(O)cc3)N3CSC(=S)N(C(C)C)C3)C2SC1` (some centres not stated) the value was greater than 100 µM.
For `COc1cc(OC)c2c(c1)C(=O)C(CC(C)O)=CC2=O` (configuration not stated), the TGI came to 37.1 µM. This counts as double-digit micromolar.
Same read-out and setting: the figure for `O=Nc1c(O)cc(Nc2ccc(Br)cc2)c2ccccc12` is 6.04 µM; for `Cc1csc(=S)n1OC(=O)NC1CCCCC1` it is greater than 100 µM.
The same measure, in the same setting: the figure for `C=CC/C=C/Cc1csc(C(C)(C)C(O)C/C=C/C(=C)CCNC(=O)OC)n1` (configuration not stated) is greater than 100 µM; for `COc1ccc(C2=Nc3ccccc3NC(=O)C2)cc1` it is greater than 100 µM; for `O=c1c2nn3c(=O)n(-c4ccccc4)c(=O)c3nn2c(=O)n1-c1ccccc1` it is greater than 100 µM.
Compound `COC(=O)C1=CC2CCCC1(O)C(C(C)=O)C2` (configuration not stated) had a TGI greater than 100 µM.
Still for that read-out and setting: the figure for `Cc1ccc(C2=Nc3cccc4cccc(c34)N2)cc1` is greater than 100 µM; for `COC(=O)c1ccccc1CC1Cc2ccc3c(c2C1=O)CCC3` (configuration not stated) it is greater than 100 µM; for `CS(=O)(=O)N1CC(CCl)c2ccc([N+](=O)[O-])cc21` (configuration not stated) it is greater than 100 µM.
As for `O=c1cc(NNc2ccccc2)[nH]c(=S)[nH]1`, the TGI is greater than 100 µM.
Still for that read-out and setting: the figure for `CC(=O)NC(CS/N=N/c1nc[nH]c1C(N)=O)C(=O)O` (configuration not stated) is greater than 100 µM.
The same measure, in the same setting: the figure for `CSc1ncc2c(C#N)c3sc4ccccc4n3c(=O)c2n1` is greater than 100 µM.

For the next assay, the system named is RXF 393 renal. In words: DTP human tumour cell line panel, 48 h.
Regarding `O=C(COc1ccc2c(=O)cc(-c3ccccc3)oc2c1)N1CCN(c2ccccc2)CC1`, the concentration for total growth inhibition (TGI) was greater than 100 µM.
Still for that read-out and setting: for `Cn1cnc(CCc2ccccc2)n1` the value was greater than 100 µM.
In the case of `COc1cc(OC)c2c(c1)C(=O)C(CC(C)O)=CC2=O` (configuration not stated), the TGI was found to be 25.3 µM.
Still for that read-out and setting: the figure for `O=Nc1c(O)cc(Nc2ccc(Br)cc2)c2ccccc12` is 50.3 µM.
The same measure, in the same setting: the figure for `Cc1csc(=S)n1OC(=O)NC1CCCCC1` is greater than 100 µM; for `C=CC/C=C/Cc1csc(C(C)(C)C(O)C/C=C/C(=C)CCNC(=O)OC)n1` (configuration not stated) it is greater than 100 µM.
The same measure, in the same setting: for `COc1ccc(C2=Nc3ccccc3NC(=O)C2)cc1` the value was 46.2 µM; for `O=c1c2nn3c(=O)n(-c4ccccc4)c(=O)c3nn2c(=O)n1-c1ccccc1`, greater than 100 µM; for `COC(=O)C1=CC2CCCC1(O)C(C(C)=O)C2` (configuration not stated), greater than 100 µM.
`Cc1ccc(C2=Nc3cccc4cccc(c34)N2)cc1` came in with a TGI greater than 100 µM.
Compound `COC(=O)c1ccccc1CC1Cc2ccc3c(c2C1=O)CCC3` (configuration not stated) registered a TGI greater than 100 µM.
Take `CS(=O)(=O)N1CC(CCl)c2ccc([N+](=O)[O-])cc21` (configuration not stated): the TGI is greater than 100 µM.
On the same count and under the same terms, for `O=c1cc(NNc2ccccc2)[nH]c(=S)[nH]1` the value was greater than 100 µM; for `CC(=O)NC(CS/N=N/c1nc[nH]c1C(N)=O)C(=O)O` (configuration not stated), greater than 100 µM.
For `CSc1ncc2c(C#N)c3sc4ccccc4n3c(=O)c2n1`, the TGI is greater than 100 µM.

The subject of the next assay is OVCAR-3 ovarian. Nature of the assay: DTP human tumour cell line panel, 48 h.
As for `O=C(COc1ccc2c(=O)cc(-c3ccccc3)oc2c1)N1CCN(c2ccccc2)CC1`, the total growth inhibition concentration (TGI) was greater than 100 µM.
Still for that read-out and setting: for `Cn1cnc(CCc2ccccc2)n1` the value was greater than 100 µM; for `CC1=C(C(=O)O)N2C(=O)[C@@H](NC(=O)C(c3ccc(O)cc3)N3CSC(=S)N(C(C)C)C3)C2SC1` (some centres not stated), greater than 100 µM.
On the same count and under the same terms, for `COc1cc(OC)c2c(c1)C(=O)C(CC(C)O)=CC2=O` (configuration not stated) the value was 18.3 µM; for `O=Nc1c(O)cc(Nc2ccc(Br)cc2)c2ccccc12`, greater than 51.9 µM.
On the same count and under the same terms, for `Cc1csc(=S)n1OC(=O)NC1CCCCC1` the value was greater than 100 µM; for `C=CC/C=C/Cc1csc(C(C)(C)C(O)C/C=C/C(=C)CCNC(=O)OC)n1` (configuration not stated), greater than 100 µM; for `COc1ccc(C2=Nc3ccccc3NC(=O)C2)cc1`, greater than 100 µM.
`O=c1c2nn3c(=O)n(-c4ccccc4)c(=O)c3nn2c(=O)n1-c1ccccc1` returned a TGI greater than 100 µM.
Still for that read-out and setting: for `COC(=O)C1=CC2CCCC1(O)C(C(C)=O)C2` (configuration not stated) the value was greater than 100 µM.

For the origin of these results see PubChem BioAssay (NCI).
